Results from patent publication US7799820B2, “2-Heterocycle-substituted indole derivatives for treating diabetes and associated conditions” (Banyu Pharmaceutical Co., Ltd., priority 2005, dated 2010).

Molecular target: T1, recombinant human liver GK (Homo sapiens, UniProt P35557)
T1 construct: made in house; host or cells: E. coli
T1 sequence (P35557 1-466 isoform P35557-2): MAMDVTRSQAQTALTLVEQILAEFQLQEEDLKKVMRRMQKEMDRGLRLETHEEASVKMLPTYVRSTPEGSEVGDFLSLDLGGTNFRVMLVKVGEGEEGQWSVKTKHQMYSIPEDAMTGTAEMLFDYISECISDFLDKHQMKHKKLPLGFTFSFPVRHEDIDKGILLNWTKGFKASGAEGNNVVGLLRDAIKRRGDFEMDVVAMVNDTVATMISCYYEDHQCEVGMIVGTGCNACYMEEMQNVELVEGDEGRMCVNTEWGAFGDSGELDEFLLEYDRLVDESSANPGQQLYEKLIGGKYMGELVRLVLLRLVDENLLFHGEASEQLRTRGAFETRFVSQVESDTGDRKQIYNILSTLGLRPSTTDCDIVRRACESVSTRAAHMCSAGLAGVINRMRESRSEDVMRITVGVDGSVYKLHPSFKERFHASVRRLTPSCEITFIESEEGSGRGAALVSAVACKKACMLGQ
Experiment: glucokinase activation assay (Thio-NADH, G6PDH-coupled)
Assay type: biochemical
Details: final glucose concentration 2.5 mM; 30° C.
Source text: The excellent glucokinase-activating effect of the compounds of formula (I) may be determined by a method described in literature (e.g., Diabetes, Vol. 45, pp. 1671-1677, 1996), or in accordance with it.
The glucokinase activity may be determined not by directly measuring glucose-6-phosphate but by measuring the level of Thio-NADH, which is produced when a reporter enzyme, glucose-6-phosphate dehydrogenase produces phosphogluconolactone from glucose-6-phosphate, and based on that level, the level of glucokinase activation may be determined.
In this assay, used was a recombinant human liver GK, which was expressed by E. coli as a FLAG fusion protein therein and was purified by ANTIFLAG M2 AFFINITY GEL (Sigma).
Using a flat-bottomed 96-well plate, the assay was carried out at 30° C. 69 μl of an assay buffer (25 mM Hepes Buffer, pH=7.2, 2 mM MgCl2, 1 mM ATP, 0.5 mM TNAD, 1 mM dithiothreitol) was put into the plate, and 1 μl of a DMSO solution of the compound or DMSO alone as a control was added thereto. Next, 20 μl of an enzyme mixture (FLAG-GK, 20 U/ml G6PDH) cooled in ice was added to it, and 10 μl of a substrate, 25 mM glucose was added to it, and the reaction was initiated (final glucose concentration=2.5 mM).
After the start of the reaction, the increase in the absorbance at 405 nm was measured for 12 minutes at intervals of 30 seconds, and the increase for the first 5 minutes was used for evaluating the compound tested. FLAG-GK was added so that the absorbance increase after 5 minutes in the presence of 1% DMSO could be from 0.04 to 0.06.
The OD level of the DMSO control was set as 100%; and the OD level of the test compound at different concentrations was determined. From the OD level at each concentration, Emax (%) and EC50 (μM) were computed and used as the index of the GK-activating potency of the compound.

With `CCS(=O)(=O)c1ccc(Oc2cc3cc(-c4ccccn4)[nH]c3cc2Oc2cccnc2OC(F)F)cn1` [Example 2, 6-([2-(Difluoromethoxy)pyridin-3-yl]oxy)-5-([6-(ethylsulfonyl)pyridin-3-yl]oxy)-2-pyridin-2-yl-1H-indole] as the molecule, how does the EC50 read?
The EC50 was 180 nM.

With `CS(=O)(=O)c1ccc(Oc2cc3cc(-c4ccccn4)[nH]c3cc2CN2CCCC2=O)cn1` [Example 3, 1-[(5-([6-(Methylsulfonyl)pyridin-3-yl]oxy)-2-pyridin-2-yl-1H-indol-6-yl)methyl]p-pyrrolidin-2-one] as the molecule, how does the EC50 read?
The EC50 was 70 nM.

With `Cc1nc(-c2ccc(Oc3cc4cc(-c5ccccn5)[nH]c4cc3CN3CCCC3=O)cn2)no1` [Example 6, 1-[(5-([6-(5-Methyl-1,2,4-oxadiazol-3-yl)pyridin-3-yl]oxy)-2-pyridin-2-yl-1H-indol-6-yl)methyl]pyrrolidin-2-one] as the molecule, how does the EC50 read?
The EC50 was 50 nM.
